Assay results from patent publication US20110003753A1, “COMPOSITIONS AND METHODS FOR DISRUPTING THE FUNCTION OF THE TRANSCRIPTIONAL REPRESSOR COMPONENT Sin3A-PAH2 DOMAIN TO INDUCE DIFFERENTIATION AND GROWTH INHIBITION IN BREAST CANCER” (SAMUEL WAXMAN CANCER RESEARCH FOUNDATION, priority 2009, published 2011).

Experiments:
[1] = test system: MMTV-Myc mouse breast cancer cells; test: Phenotypic (morphology) changes in culture; assay type: cell-based
Source text: (§1) FIG. 1: Expression of a decoy peptide corresponding to MAD Sin3 interaction domain (SID) induces markers of differentiation and contact inhibition in MDA-MB-231 breast cancer cells. A. Schematic of the SID peptides and expression constructs used in this study. Shown in the upper panel are the design and sequence of the Tat-SID peptide and Tat-SID^SCR scrambled control. The Tat-SID peptide corresponds to amino acids 5-24 of MAD. This sequence binds Sin3 PAH2 with high affinity and has been previously used to study SID-PAH2 interactions in vitro. Peptides contain a leader sequence (YGRKKRRQGGG, SEQ ID No. 5) corresponding to the human immunodeficiency virus type 1 Tat arginine-rich RNA-binding motif (ARM), which has been mutated (RRR>GGG) to improve nuclear entry. B. Morphological changes induced by SID in MDA-MB-231 and MMTV-Myc. […] D. Confocal IF analyses showing the re-expression of membrane-associated E-cadherin induced by the expression of SID in MDA-MB-231 cells (top row) and MMTV-Myc cells (bottom row) E. Re-expression of nuclear RARβ in MDA-MB-231 cells detected by immunofluorescence microscopy. […]

ERα and RARβ = test: Re-expression of silenced genes in MDA-MB-231 cells; assay type: cell-based, human
Source text: This finding coincides with the increased expression of E-cadherin and CRBP1, known RAR target genes and the induction of p27, highly sensitive to RAR activation. […] Thus, blocking specific sites of a component of a transcriptional repressor limited to few transcription factors can be used to induce a differentiation phenotype and anti-tumor effect in breast cancer and that these events may, impart new and/or restore therapeutic targets in breast cancer.

Sin3B and MAD = test: Mammalian two-hybrid assay, GAL4 DBD-Sin3B and VP16AD-MAD in 293T cells; assay type: cell-based; settings: 15 μM peptide applied to the cell culture medium
Source text: FIG. 2: SID decoy peptide blocks interactions between Sin3 PAH2 and MAD and interferes with recruitment of members of the Sin3 co-repressor complex. A. GST pull-down of MAD by the Sin3A PAH2 domain is blocked by SID peptide. Sin3A PAH2 domain (amino acids 306-450) was expressed in E. coli as a GST fusion and used in a pull down assay for in vitro interaction with 35S-methionine labeled MAD (left panel) or MAD immunoprecipitated from MDA-MB-231 cell lysates (right panel). 25% of input is shown for in vitro translated MAD and 10% of input for immunoprecipitated MAD (input). Assays were performed using 15 μM Tat-SID or Tat-SID^SCR peptide unless otherwise indicated. […] 293T cells were transfected with GAL4^uas×5-Tk-Luc reporter together with mammalian two-hybrid vectors expressing a fusion of Sin3B with GAL4 DNA binding domain (GAL4^DBD) and fusions of MAD and HDAC1 (columns 5-12 and 14-21, respectively) with VP16 activation domain (VP16^AD), as well as SID expression vectors, as indicated. […]
24 hours prior to transfection, 293T cells were plated at 50-60% confluence on 48-well plates. […] 48 hours post-transfection luciferase activity was measured using the Dual Luciferase assay system (Promega) on a Mithras LB940 plate reader (Berthold Technologies). […]

MDA-MB-231 = test: Phenotypic (morphology) changes in culture; assay type: cell-based, human; settings: cells in culture
Source text: as §1

YGRKKRRQGGGVRMNIQMLLEAADYLERRER [SID peptide]
phenotypic change of cell morphology [1]: cobblestone monolayers and well defined cell-cell contact accompanied by cell growth contact inhibition
re-expression of ERα and RARβ (ERα and RARβ): induced the re-expression of ERα and RARβ
increase in luciferase activity compared to GAL4 DBD-Sin3B and VP16AD-MAD co-expression (Sin3B and MAD): confirmed, albeit to a lesser degree
phenotypic change of cell morphology (MDA-MB-231): cobblestone monolayers and well defined cell-cell contact accompanied by cell growth contact inhibition
